From paper PMC9538320 (Protein Science : A Publication of the Protein Society, 2022)

Target: SARS-CoV-2 protein 7a ectodomain (protein 7a ECD) (Severe acute respiratory syndrome coronavirus 2, UniProt P0DTC7)
Assay: biochemical

SARS-CoV-2 protein 7a ectodomain (protein 7a ECD), sequence (P0DTC7 16-95): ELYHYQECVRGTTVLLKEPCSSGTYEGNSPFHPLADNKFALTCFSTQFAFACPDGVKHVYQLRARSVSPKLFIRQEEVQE

C=CC1=C(C)C2=Cc3c(C=C)c(C)c4[n]3[Fe]([Cl])[n]3c(c(C)c(CCC(=O)O)c3=CC3=NC(=C4)C(C)=C3CCC(=O)O)=CC1=N2 [heme] gave a Kd of 469 ± 27 nM.
